Consider one compound from ChEMBL document CHEMBL3887009, “Substituted benzoxazoles” (2016).

The test can be described thus: Inhibition Assay: To determine the thrombin inhibition of the substances listed above, a biochemical test system is constructed in which the conversion of a thrombin substrate is used for determining the enzymatic activity of human thrombin. Here, thrombin cleaves aminomethylcoumarin, which is measured fluorescently, from the peptic substrate. The determinations are carried out in microtitre plates.Substances to be tested are dissolved in various concentrations in dimethyl sulphoxide and incubated for 15 min with human thrombin (0.06 nmol/l dissolved in 50 mmol/l of Tris buffer [C,C,C-tris(hydroxymethyl)aminomethane], 100 mmol/l of sodium chloride, 0.1% BSA [bovine serum albumin], pH 7.4) at 22° C. The substrate (5 umol/l Boc-Asp(OBzl)-Pro-Arg-AMC from Bachem) is then added. After 30 min of incubation, the sample is excited at a wavelength of 360 nm and the emission is measured at 460 nm. The measured emissions of the test batches with test substance are compared to the control batches without test substance (only dimethyl sulphoxide instead of test substance in dimethyl sulphoxide) and the IC50 values are calculated from the concentration/activity relationships.

As a reminder, the IC50 is the concentration that gives 50% inhibition.

For the compound `COc1cc(C(=O)N2CC(C)(CCO)OC[C@H]2C)cc2nc(N[C@H](CF)c3cccc(Cl)c3)oc12` (stereo partly specified), the IC50 was 130 nM.
